# Measured values published in US9890152B2 (Genentech, Inc., priority 2012, dated 2018).
# Target: T1, EGFR del746-750 T790M (Homo sapiens, UniProt P00533, DEL746-750/T790M)
# T1 construct: purchased Carna Biosciences 08-528
# Assay: EGFR del746-750 T790M biochemical assay (Caliper mobility shift)
# Settings: 5 μM ATP, 30 min, room temperature; apparent Ki (Morrison) converted by Cheng-Prusoff, Km of ATP 2.1 μM; read-out: EGFR(T790M/d746-750) Ki
# T1 sequence (P00533 with tags, fused parts or gaps DEL746-750/T790M limits assumed): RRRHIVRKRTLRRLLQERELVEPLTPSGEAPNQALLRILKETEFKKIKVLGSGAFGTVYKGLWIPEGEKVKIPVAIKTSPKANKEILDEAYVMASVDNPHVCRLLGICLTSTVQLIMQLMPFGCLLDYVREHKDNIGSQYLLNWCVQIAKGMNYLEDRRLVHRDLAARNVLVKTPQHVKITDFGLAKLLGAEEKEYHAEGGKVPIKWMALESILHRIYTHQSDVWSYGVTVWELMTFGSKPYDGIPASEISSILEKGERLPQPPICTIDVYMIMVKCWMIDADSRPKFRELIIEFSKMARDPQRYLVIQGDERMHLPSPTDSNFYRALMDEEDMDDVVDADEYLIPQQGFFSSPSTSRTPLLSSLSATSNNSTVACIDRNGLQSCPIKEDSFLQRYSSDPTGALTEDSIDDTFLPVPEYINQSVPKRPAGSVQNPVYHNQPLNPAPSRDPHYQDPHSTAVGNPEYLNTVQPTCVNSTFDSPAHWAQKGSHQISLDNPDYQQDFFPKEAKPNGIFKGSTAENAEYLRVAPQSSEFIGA
row,Compound,Ki
1,"CO[C@H]1[C@@H]2CC[C@H]1CN(c1nccc(Nc3cc4c(cn3)nc(CO)n4C(C)C)n1)C2 [Example 273, (1-Isopropyl-6-((2-((1R,5R,8r)-8-methoxy-3-azabicyclo[3.2.1]octan-3-yl)pyrimidin-4-yl)amino)-1H-imidazo[4,5-c]pyridin-2-yl)methanol]",23.7 nM
2,"COC1CCN(c2nccc(Nc3cc4c(cn3)nc([C@@H](C)O)n4[C@H](C)C(F)(F)F)n2)CC1F (mixture of isomers) [Example 297, (R)-1-[6-[2-(cis-3-Fluoro-4-methoxypiperidin-1-yl)pyrimidin-4-ylamino]-1-((R)-2,2,2-trifluoro-1-methylethyl)-1H-imidazo[4,5-c]pyridin-2-yl]ethanol]",40 nM
3,"CCC(C)n1cc(C(=O)NC2CCN(C3COC3)CC2)c2cnc(Nc3ccnc(N4CC[C@@H](OC)[C@@H](F)C4)n3)cc21 (single isomer, unassigned) [Example 325]",3.35 nM
4,"Cc1nc2cnc(Nc3ccnc(-c4cn(C)nc4N)n3)cc2n1C(C)C [Example 363, N-(2-(3-Amino-1-methyl-1H-pyrazol-4-yl)pyrimidin-4-yl)-1-isopropyl-2-methyl-1H-imidazo[4,5-c]pyridin-6-amine]",31 nM
5,"CCS(=O)(=O)n1cc(-c2nccc(Nc3cc4c(cn3)c(-c3cnn(CCS(C)(=O)=O)c3)cn4C(C)C)n2)cn1 [Example 392, N-(2-(1-(ethylsulfonyl)-1H-pyrazol-4-yl)pyrimidin-4-yl)-1-isopropyl-3-(1-(2-(methylsulfonyl)ethyl)-1H-pyrazol-4-yl)-1H-pyrrolo[3,2-c]pyridin-6-amine]",1.41 nM
6,"Cc1nc2cnc(Nc3ccnc(N4CCC(O)C(C)(C)C4)n3)cc2n1C(C)C (stereo not drawn) [Example 427, 1-(4-((1-isopropyl-2-methyl-1H-imidazo[4,5-c]pyridin-6-yl)amino)pyrimidin-2-yl)-3,3-dimethylpiperidin-4-ol]",119 nM
7,"Cc1cc(-c2cn(C(C)C)c3cc(Nc4ccnc(-c5cnn(S(=O)(=O)C6CC6)c5)n4)ncc23)nn1CCO [Example 435, 2-(3-(6-(2-(1-(cyclopropylsulfonyl)-1H-pyrazol-4-yl)pyrimidin-4-ylamino)-1-isopropyl-1H-pyrrolo[3,2-c]pyridin-3-yl)-5-methyl-1H-pyrazol-1-yl)ethanol]",2.36 nM
8,"CC(C)n1cc(C(=O)NC2COC2)c2cnc(Nc3ccnc(-c4cnn(S(=O)(=O)N5CCCC5)c4)n3)cc21 [Example 388, 1-isopropyl-N-(oxetan-3-yl)-6-((2-(1-(pyrrolidin-1-ylsulfonyl)-1H-pyrazol-4-yl)pyrimidin-4-yl)amino)-1H-pyrrolo[3,2-c]pyridine-3-carboxamide]",29 nM
9,"Cc1nc2cnc(Nc3ccnc(-c4cnn(S(=O)(=O)C(C)C)c4)n3)cc2n1C(C)C [Example 409, 1-isopropyl-N-(2-(1-(isopropylsulfonyl)-1H-pyrazol-4-yl)pyrimidin-4-yl)-2-methyl-1H-imidazo[4,5-c]pyridin-6-amine]",1.97 nM
10,"Cc1nc2cnc(Nc3ccnc(-c4cnc(N(C)C)s4)n3)cc2n1C(C)C [Example 317, [2-(2-Dimethylaminothiazol-5-yl)pyrimidin-4-yl]-(1-isopropyl-2-methyl-1H-imidazo[4,5-c]pyridin-6-yl)amine]",2.97 nM
11,"CC(C)n1cc(C(=O)NC2CCSCC2)c2cnc(Nc3ccnc(-c4cnn(S(=O)(=O)C5CC5)c4)n3)cc21 [Example 458, 6-(2-(1-(cyclopropylsulfonyl)-1H-pyrazol-4-yl)pyrimidin-4-ylamino)-1-isopropyl-N-(tetrahydro-2H-thiopyran-4-yl)-1H-pyrrolo[3,2-c]pyridine-3-carboxamide]",1.35 nM
12,"CCC(C)n1cc(C(=O)NC2CCN(C3COC3)CC2)c2cnc(Nc3ccnc(N4CC[C@@H](OC)[C@@H](F)C4)n3)cc21 (single isomer, unassigned) [Example 326]",3.83 nM
13,"Cc1nc2cnc(Nc3ccnc(N4CCC(S(C)(=O)=O)CC4)n3)cc2n1C(C)C [Example 545, (1-Isopropyl-2-methyl-1H-imidazo[4,5-c]pyridin-6-yl)-[2-(4-methanesulfonylpiperidin-1-yl)pyrimidin-4-yl]amine]",501 nM
14,"CCNC(=O)c1cn(C(C)CC)c2cc(Nc3ccnc(N4CC[C@@H](O)[C@@H](F)C4)n3)ncc12 (single isomer, unassigned) [Example 370]",4.02 nM
15,"CCC(C)n1cc(C(=O)NC2CCN(C3COC3)CC2)c2cnc(Nc3ccnc(N4CC[C@H](O)[C@H](F)C4)n3)cc21 (mixture of isomers) [Example 389, 1-(sec-butyl)-6-((2-((3R,4S)-3-fluoro-4-hydroxypiperidin-1-yl)pyrimidin-4-yl)amino)-N-(1-(oxetan-3-yl)piperidin-4-yl)-1H-pyrrolo[3,2-c]pyridine-3-carboxamide]",4.03 nM
16,CC(C)n1cnc2cnc(Nc3ccnc(N4CC5CC4CC5F)n3)cc21 (stereo not drawn) [Example 191],54.7 nM
17,"Cc1cn[nH]c1-c1cn(C(C)C)c2cc(Nc3ccnc(-c4cnn(S(=O)(=O)C5CC5)c4)n3)ncc12 [Example 346, N-(2-(1-(cyclopropylsulfonyl)-1H-pyrazol-4-yl)pyrimidin-4-yl)-1-isopropyl-3-(4-methyl-1H-pyrazol-5-yl)-1H-pyrrolo[3,2-c]pyridin-6-amine]",3.07 nM
18,"CO[C@H]1CCN(c2nccc(Nc3cc4c(cn3)nc(CO)n4C(C)C)n2)C[C@@H]1F (racemic) [Example 527, (±)-{6-[2-((trans)-3-Fluoro-4-methoxypiperidin-1-yl)pyrimidin-4-ylamino]-1-isopropyl-1H-imidazo[4,5-c]pyridin-2-yl}methanol]",239 nM
19,"CC(C)n1cc(C(=O)N[C@@H]2CCN(C3COC3)C[C@@H]2F)c2cnc(Nc3ccnc(-c4cnn(S(=O)(=O)C5CC5)c4)n3)cc21 (racemic) [Example 372, (±)-6-((2-(1-(cyclopropylsulfonyl)-1H-pyrazol-4-yl)pyrimidin-4-yl)amino)-N-((cis)-3-fluoro-1-(oxetan-3-yl)piperidin-4-yl)-1-isopropyl-1H-pyrrolo[3,2-c]pyridine-3-carboxamide]",1.08 nM
20,"COC1CCN(c2nccc(Nc3cc4c(cn3)nc(CO)n4C(C)C)n2)CC1 [Example 10, {1-Isopropyl-6-[2-(4-methoxypiperidin-1-yl)pyrimidin-4-ylamino]-1H-imidazo[4,5-c]pyridin-2-yl}methanol]",63.2 nM
21,"Cc1c(-c2cn(C(C)C)c3cc(Nc4ccnc(-c5cnn(S(=O)(=O)C6CC6)c5)n4)ncc23)cnn1CCO [Example 438, 2-(4-(6-(2-(1-(cyclopropylsulfonyl)-1H-pyrazol-4-yl)pyrimidin-4-ylamino)-1-isopropyl-1H-pyrrolo[3,2-c]pyridin-3-yl)-5-methyl-1H-pyrazol-1-yl)ethanol]",1.06 nM
22,"Cc1nc2cnc(Nc3ccnc(N4CCC(OC(F)F)CC4)n3)cc2n1C(C)C [Example 549, [2-(4-Difluoromethoxypiperidin-1-yl)pyrimidin-4-yl]-(1-isopropyl-2-methyl-1H-imidazo[4,5-c]pyridin-6-yl)amine]",143 nM

# The next lines start with the values.
row,Ki,Compound
1,393 nM,"CC(C)n1c(CO)nc2cnc(Nc3ccnc(N4CC[C@H]([S+](C)[O-])[C@H](F)C4)n3)cc21 (relative stereo) [Example 623, {6-[2-(cis-3-Fluoro-4-methanesulfinylpiperidin-1-yl)pyrimidin-4-ylamino]-1-isopropyl-1H-imidazo[4,5-c]pyridin-2-yl}methanol]"
2,50.5 nM,Cc1nc2cnc(Nc3ccnc(N4CC[C@@H](O)C[C@H]4C)n3)cc2n1C(C)C [Example 601]
3,15.3 nM,"CC(n1cc(C(=O)NC2CCOCC2)c2cnc(Nc3ccnc(N4CC[C@@H](O)[C@@H](F)C4)n3)cc21)C(F)(F)F (single isomer, unassigned) [Example 640]"
4,13.2 nM,"Cc1nc2cnc(Nc3ccnc(NCC(F)(F)C(N)=O)n3)cc2n1C(C)C [Example 610, 2,2-Difluoro-3-[4-(1-isopropyl-2-methyl-1H-imidazo[4,5-c]pyridin-6-ylamino)pyrimidin-2-ylamino]propionamide]"
5,189 nM,Cc1nc2cnc(Nc3ccnc(N4CC[C@H](O)C4)n3)cc2n1C(C)C [Example 681]
6,9.62 nM,"CCc1ncc(-c2nccc(Nc3cc4c(cn3)nc(C)n4C(C)C)n2)s1 [Example 595, [2-(2-Ethylthiazol-5-yl)pyrimidin-4-yl]-(1-isopropyl-2-methyl-1H-imidazo[4,5-c]pyridin-6-yl)amine]"
7,202 nM,"CC(C)n1c(CO)nc2cnc(Nc3ccnc(N4CC[C@@H](O)[C@H](C)C4)n3)cc21 (racemic) [Example 630, (±)-(trans)-1-(4-(2-(Hydroxymethyl)-1-isopropyl-1H-imidazo[4,5-c]pyridin-6-ylamino)pyrimidin-2-yl)-3-methylpiperidin-4-ol]"
8,234 nM,CC(C)n1c(CO)nc2cnc(Nc3ccnc(N4CCC(O)(C(F)(F)F)CC4)n3)cc21 [Example 669]
9,27.5 nM,"Cc1nc2cnc(Nc3ccnc(-n4ccnc4)n3)cc2n1C(C)C [Example 599, (2-Imidazol-1-ylpyrimidin-4-yl)-(1-isopropyl-2-methyl-1H-imidazo[4,5-c]pyridin-6-yl)amine]"
10,146 nM,"CO[C@@H]1CCN(c2nccc(Nc3cc4c(cn3)nc(CO)n4C(C)C)n2)C[C@@H]1Cl (racemic) [Example 634, (6-(2-((±)-(cis)-3-Chloro-4-methoxypiperidin-1-yl)pyrimidin-4-ylamino)-1-isopropyl-1H-imidazo[4,5-c]pyridin-2-yl)methanol]"
11,17.4 nM,CO[C@@H]1CCN(c2nccc(Nc3cc4c(cn3)nc(CO)n4[C@@H](C)C(F)(F)F)n2)C[C@@H]1F [Example 657]
12,9.14 nM,Cc1nc2cnc(Nc3ccnc(N4CCc5cn[nH]c5C4)n3)cc2n1C(C)C [Example 651]
13,200 nM,Cc1nc2cnc(Nc3ccnc(N4CC[C@@H](C#N)C4)n3)cc2n1C(C)C [Example 678]
14,14.9 nM,"CCC(C)n1cc(C(=O)NC2CCOCC2)c2cnc(Nc3ccnc(N4CCC(C)(O)CC4)n3)cc21 (racemic) [Example 638, 1-(sec-butyl)-6-((2-(4-hydroxy-4-methylpiperidin-1-yl)pyrimidin-4-yl)amino)-N-(tetrahydro-2H-pyran-4-yl)-1H-pyrrolo[3,2-c]pyridine-3-carboxamide]"
